# Data reported in US10597388B2, “Pyridazinone herbicides” (FMC CORPORATION, priority 2014, dated 2020).
# Key:
# Assay in all cases: Test D controlled growth environment herbicide test, pre- and postemergence
# Assay type in all cases: in vivo
# [1] = system: windgrass (Apera spica-venti)
# Outline: (§1)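 Species sown in silt loam and sprayed preemergence, or grown in peat-based medium to 2–18 cm (1- to 4-leaf stage) and sprayed postemergence, with compounds in non-phytotoxic solvent plus surfactant. Visual injury scored versus controls after 14–21 d in a controlled environment, 0 (no effect) to 100 (complete control).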
# [2] = system: chickweed (common chickweed, Stellaria media)
# Outline: as §1
# [3] = system: ryegrass, Italian (Italian ryegrass, Lolium multiflorum)
# Outline: as §1
# [4] = system: field violet (Viola arvensis)
# Outline: as §1
# [5] = system: deadnettle (henbit deadnettle, Lamium amplexicaule)
# Outline: as §1
# [6] = system: wheat, winter (winter wheat, Triticum aestivum)
# Outline: as §1
# [7] = system: field poppy (Papaver rhoeas)
# Outline: as §1
# [8] = system: wheat, spring (spring wheat, Triticum aestivum)
# Outline: as §1
# [9] = system: blackgrass (Alopecurus myosuroides)
# Outline: as §1
# [10] = system: radish, wild (wild radish, Raphanus raphanistrum)
# Outline: as §1
# [11] = system: Russian thistle (Salsola kali)
# Outline: as §1
# [12] = system: pigweed (Amaranthus retroflexus)
# Outline: as §1
# [13] = system: oilseed rape (Brassica napus)
# Outline: as §1
# [14] = Postemergence, 31 g ai/ha, scale 0 to 100 (0 no effect, 100 complete control)
# [15] = Postemergence, 125 g ai/ha, visual rating on scale 0 (no effect) to 100 (complete control), 14 to 21 d
# [16] = Postemergence, 250 g ai/ha, scale 0 to 100 (0 no effect, 100 complete control)
# [17] = Preemergence, 125 g ai/ha, scale 0 to 100 (0 no effect, 100 complete control)
# [18] = Preemergence, 250 g ai/ha, scale 0 to 100 (0 no effect, 100 complete control)
# [19] = postemergence, 62 g ai/ha, scale 0 to 100, 0 no effect, 100 complete control
compound,measurement,setting,value
CCC(=O)Oc1c(C)nn(C)c(=O)c1-c1c(C)sc2ccc(Cl)cc12 [Compound 109],Windgrass plant response rating,[1]; [14],60
same,"Plant response rating, Windgrass",[1]; [15],80
same,"Plant response rating, Windgrass",[1]; [16],90
same,"Plant response rating (scale of 0 to 100), Windgrass","[1]; Preemergence, 31 g ai/ha",55
same,"Plant response rating (scale of 0 to 100), Windgrass","[1]; Preemergence, 62 g ai/ha",60
same,"Plant response rating, Windgrass",[1]; [17],80
same,"Plant response rating, Windgrass",[1]; [18],100
same,"Plant response rating, Windgrass",[1]; [19],65
same,Chickweed plant response rating,[2]; [14],100
same,"Plant response rating, Chickweed",[2]; [15],100
same,"Plant response rating, Chickweed",[2]; [16],100
same,"Plant response rating (scale of 0 to 100), Chickweed","[2]; Preemergence, 31 g ai/ha",100
same,"Plant response rating (scale of 0 to 100), Chickweed","[2]; Preemergence, 62 g ai/ha",100
same,"Plant response rating, Chickweed",[2]; [17],100
same,"Plant response rating, Chickweed",[2]; [18],100
same,"Plant response rating, Chickweed",[2]; [19],100
same,"Ryegrass, Italian plant response rating",[3]; [14],85
same,"Plant response rating, Ryegrass, Italian",[3]; [15],95
same,"Plant response rating, Ryegrass, Italian",[3]; [16],100
same,"Plant response rating (scale of 0 to 100), Ryegrass, Italian","[3]; Preemergence, 31 g ai/ha",80
same,"Plant response rating (scale of 0 to 100), Ryegrass, Italian","[3]; Preemergence, 62 g ai/ha",95
same,"Plant response rating, Ryegrass, Italian",[3]; [17],100
same,"Plant response rating, Ryegrass, Italian",[3]; [18],100
same,"Plant response rating, Ryegrass, Italian",[3]; [19],85
same,Field Violet plant response rating,[4]; [14],90
same,"Plant response rating, Field Violet",[4]; [15],100
same,"Plant response rating, Field Violet",[4]; [16],100
same,"Plant response rating (scale of 0 to 100), Field Violet","[4]; Preemergence, 31 g ai/ha",85
same,"Plant response rating (scale of 0 to 100), Field Violet","[4]; Preemergence, 62 g ai/ha",100
same,"Plant response rating, Field Violet",[4]; [17],100
same,"Plant response rating, Field Violet",[4]; [18],100
same,"Plant response rating, Field Violet",[4]; [19],95
same,Deadnettle plant response rating,[5]; [14],20
same,"Plant response rating, Deadnettle",[5]; [15],70
same,"Plant response rating, Deadnettle",[5]; [16],95
same,"Plant response rating (scale of 0 to 100), Deadnettle","[5]; Preemergence, 31 g ai/ha",0
same,"Plant response rating (scale of 0 to 100), Deadnettle","[5]; Preemergence, 62 g ai/ha",60
same,"Plant response rating, Deadnettle",[5]; [17],80
same,"Plant response rating, Deadnettle",[5]; [18],95
same,"Plant response rating, Deadnettle",[5]; [19],50
same,"Wheat, Winter plant response rating",[6]; [14],10
same,"Plant response rating, Wheat, Winter",[6]; [15],25
same,"Plant response rating, Wheat, Winter",[6]; [16],35
same,"Plant response rating (scale of 0 to 100), Wheat, Winter","[6]; Preemergence, 31 g ai/ha",0
same,"Plant response rating (scale of 0 to 100), Wheat, Winter","[6]; Preemergence, 62 g ai/ha",0
same,"Plant response rating, Wheat, Winter",[6]; [17],5
same,"Plant response rating, Wheat, Winter",[6]; [18],20
same,"Plant response rating, Wheat, Winter",[6]; [19],15
same,Field Poppy plant response rating,[7]; [14],45
same,"Plant response rating, Field Poppy",[7]; [15],75
same,"Plant response rating, Field Poppy",[7]; [16],85
same,"Plant response rating (scale of 0 to 100), Field Poppy","[7]; Preemergence, 31 g ai/ha",100
same,"Plant response rating (scale of 0 to 100), Field Poppy","[7]; Preemergence, 62 g ai/ha",100
same,"Plant response rating, Field Poppy",[7]; [17],100
same,"Plant response rating, Field Poppy",[7]; [18],100
same,"Plant response rating, Field Poppy",[7]; [19],50
same,"Wheat, Spring plant response rating",[8]; [14],5
same,"Plant response rating, Wheat, Spring",[8]; [15],25
same,"Plant response rating, Wheat, Spring",[8]; [16],30
same,"Plant response rating (scale of 0 to 100), Wheat, Spring","[8]; Preemergence, 31 g ai/ha",0
same,"Plant response rating (scale of 0 to 100), Wheat, Spring","[8]; Preemergence, 62 g ai/ha",5
same,"Plant response rating, Wheat, Spring",[8]; [17],20
same,"Plant response rating, Wheat, Spring",[8]; [18],40
same,"Plant response rating, Wheat, Spring",[8]; [19],15
same,Blackgrass plant response rating,[9]; [14],20
same,"Plant response rating, Blackgrass",[9]; [15],65
same,"Plant response rating, Blackgrass",[9]; [16],75
same,"Plant response rating (scale of 0 to 100), Blackgrass","[9]; Preemergence, 31 g ai/ha",25
same,"Plant response rating, Blackgrass","[9]; Preemergence, 62 g ai/ha, scale 0 to 100 (0 no effect, 100 complete control)",25
same,"Plant response rating, Blackgrass",[9]; [17],75
same,"Plant response rating, Blackgrass",[9]; [18],80
same,"Plant response rating, Blackgrass",[9]; [19],30
same,"Radish, Wild plant response rating",[10]; [14],75
same,"Plant response rating, Radish, Wild",[10]; [15],90
same,"Plant response rating, Radish, Wild",[10]; [16],100
same,"Plant response rating (scale of 0 to 100), Radish, Wild","[10]; Preemergence, 31 g ai/ha",25
same,"Plant response rating (scale of 0 to 100), Radish, Wild","[10]; Preemergence, 62 g ai/ha",75
same,"Plant response rating, Radish, Wild",[10]; [17],90
same,"Plant response rating, Radish, Wild",[10]; [18],95
same,"Plant response rating, Radish, Wild",[10]; [19],75
same,Russian Thistle plant response rating,[11]; [14],60
same,"Plant response rating, Russian Thistle",[11]; [15],75
same,"Plant response rating, Russian Thistle",[11]; [16],90
same,"Plant response rating (scale of 0 to 100), Russian Thistle","[11]; Preemergence, 31 g ai/ha",0
same,"Plant response rating (scale of 0 to 100), Russian Thistle","[11]; Preemergence, 62 g ai/ha",20
same,"Plant response rating, Russian Thistle",[11]; [17],35
same,"Plant response rating, Russian Thistle",[11]; [18],50
same,"Plant response rating, Russian Thistle",[11]; [19],75
same,Pigweed plant response rating,[12]; [14],85
same,"Plant response rating, Pigweed",[12]; [15],100
same,"Plant response rating, Pigweed",[12]; [16],100
same,"Plant response rating (scale of 0 to 100), Pigweed","[12]; Preemergence, 31 g ai/ha",100
same,"Plant response rating (scale of 0 to 100), Pigweed","[12]; Preemergence, 62 g ai/ha",100
same,"Plant response rating, Pigweed",[12]; [17],100
same,"Plant response rating, Pigweed",[12]; [18],100
same,"Plant response rating, Pigweed",[12]; [19],85
same,Oilseed Rape plant response rating,[13]; [14],65
same,"Plant response rating, Oilseed Rape",[13]; [15],75
same,"Plant response rating, Oilseed Rape",[13]; [16],85
same,"Plant response rating (scale of 0 to 100), Oilseed Rape","[13]; Preemergence, 31 g ai/ha",15
same,"Plant response rating (scale of 0 to 100), Oilseed Rape","[13]; Preemergence, 62 g ai/ha",40
same,"Plant response rating, Oilseed Rape",[13]; [17],75
same,"Plant response rating, Oilseed Rape",[13]; [18],85
same,"Plant response rating, Oilseed Rape",[13]; [19],70
